In ChEMBL document CHEMBL5512655, “Discovery of indolylacryloyl-derived oxacins as novel potential broad-spectrum antibacterial candidates” (Eur J Med Chem, 2024) one finds MIC data, which are given here for 9 compounds.

What all share (type): functional
Assay [1] has as its system Staphylococcus aureus. Kind of assay: Antibacterial activity against Staphylococcus aureus ATCC 29213 assessed as inhibition of bacterial growth measured after 24 hrs incubation.
Assay [2] deals with Pseudomonas aeruginosa. Kind of assay: Antibacterial activity against Pseudomonas aeruginosa assessed as inhibition of bacterial growth measured after 24 hrs incubation.
The test system of assay [3] is Staphylococcus aureus. Kind of assay: Antibacterial activity against Staphylococcus aureus assessed as inhibition of bacterial growth measured after 24 hrs incubation.
In the next assay the test system is Enterococcus faecalis. The experiment in a line: Antibacterial activity against Enterococcus faecalis assessed as inhibition of bacterial growth measured after 24 hrs incubation.
The test system of assay [4] is Pseudomonas aeruginosa. Kind of assay: Antibacterial activity against Pseudomonas aeruginosa ATCC 27853 assessed as inhibition of bacterial growth measured after 24 hrs incubation.
In the next assay the test system is Acinetobacter baumannii. Kind of assay: Antibacterial activity against Acinetobacter baumannii assessed as inhibition of bacterial growth measured after 24 hrs incubation.
The test system of the next assay is Klebsiella pneumoniae. The experiment in a line: Antibacterial activity against Klebsiella pneumonia assessed as inhibition of bacterial growth measured after 24 hrs incubation.
In assay [5] the test system is Escherichia coli. The experiment in a line: Antibacterial activity against Escherichia coli assessed as inhibition of bacterial growth measured after 24 hrs incubation.
Assay [6] concerns Escherichia coli. The experiment in a line: Antibacterial activity against Escherichia coli ATCC 25922 assessed as inhibition of bacterial growth measured after 24 hrs incubation.
Assay [7] relates to Staphylococcus aureus. The experiment in a line: Antibacterial activity against Staphylococcus aureus ATCC 25923 assessed as inhibition of bacterial growth measured after 24 hrs incubation.
The subject of assay [8] is Staphylococcus aureus. The experiment in a line: Antibacterial activity against methicillin-resistant Staphylococcus aureus N315 assessed as inhibition of bacterial growth measured after 24 hrs incubation.

By MIC is commonly meant the least concentration at which growth counts as inhibited.

Converted amounts (≈) assume the structure as drawn.

As to `CCn1cc(C(=O)O)c(=O)c2cc(F)c(N3CCN(C(=O)/C(C#N)=C/c4cn(Cc5ccccc5F)c5ccccc45)CC3)cc21`, the MIC came to 32 µg/mL (≈ 51.5 µM) in the assay with Staphylococcus aureus [1]; 1 µg/mL (≈ 1.61 µM) in the assay on Pseudomonas aeruginosa [2]; 32 µg/mL (≈ 51.5 µM) in the assay on Staphylococcus aureus [3]; 16 µg/mL (≈ 25.7 µM) in the assay on Enterococcus faecalis; 0.5 µg/mL (≈ 0.804 µM) with Pseudomonas aeruginosa [4]; 0.5 µg/mL (≈ 0.804 µM) in the assay on Acinetobacter baumannii. For the same compound, the MIC in the assay with Klebsiella pneumoniae was determined as 1 µg/mL (≈ 1.61 µM); in the assay on Escherichia coli [5], 0.5 µg/mL (≈ 0.804 µM); with Escherichia coli [6], 0.25 µg/mL (≈ 0.402 µM); in the assay with Staphylococcus aureus [7], 16 µg/mL (≈ 25.7 µM); in the assay on Staphylococcus aureus [8], 0.25 µg/mL (≈ 0.402 µM).

For `CCn1cc(C(=O)O)c(=O)c2cc(F)c(N3CCN(C(=O)/C(C#N)=C/c4cn(CC#N)c5ccccc45)CC3)cc21`, the MIC in the assay on Staphylococcus aureus [1] came out at 1 µg/mL (≈ 1.81 µM); in the assay with Pseudomonas aeruginosa [2], 0.5 µg/mL (≈ 0.905 µM); in the assay with Staphylococcus aureus [3] it was 4 µg/mL (≈ 7.24 µM); in the assay with Enterococcus faecalis, 1 µg/mL (≈ 1.81 µM); with Pseudomonas aeruginosa [4], 0.5 µg/mL (≈ 0.905 µM); with Acinetobacter baumannii, 1 µg/mL (≈ 1.81 µM). For the same compound, the MIC in the assay with Klebsiella pneumoniae is 0.5 µg/mL (≈ 0.905 µM); in the assay on Escherichia coli [5] it was 2 µg/mL (≈ 3.62 µM); in the assay on Escherichia coli [6] it was 2 µg/mL (≈ 3.62 µM); with Staphylococcus aureus [7], 0.5 µg/mL (≈ 0.905 µM); in the assay with Staphylococcus aureus [8] it was 2 µg/mL (≈ 3.62 µM).

For `CCCCCCn1cc(C(=O)O)c(=O)c2cc(F)c(N3CCN(C(=O)/C(C#N)=C/c4cn(CC(=O)OCC)c5ccccc45)CC3)cc21`, the MIC in the assay on Staphylococcus aureus [1] was 8 µg/mL (≈ 12.2 µM); in the assay with Pseudomonas aeruginosa [2], 1 µg/mL (≈ 1.53 µM); in the assay with Staphylococcus aureus [3], 64 µg/mL (≈ 97.6 µM); with Enterococcus faecalis, 0.25 µg/mL (≈ 0.381 µM); in the assay with Pseudomonas aeruginosa [4], 16 µg/mL (≈ 24.4 µM); with Acinetobacter baumannii, 8 µg/mL (≈ 12.2 µM). In addition, the minimal inhibitory concentration (MIC) in the assay on Klebsiella pneumoniae is 16 µg/mL (≈ 24.4 µM); in the assay on Escherichia coli [5], 32 µg/mL (≈ 48.8 µM); in the assay on Escherichia coli [6] it was 0.5 µg/mL (≈ 0.763 µM); in the assay with Staphylococcus aureus [7] it was 4 µg/mL (≈ 6.1 µM); in the assay on Staphylococcus aureus [8], 128 µg/mL (≈ 195 µM).

With `CCn1cc(/C=C(\C#N)C(=O)N2CCN(c3cc4c(cc3F)c(=O)c(C(=O)O)cn4CC)CC2)c2ccccc21`, the MIC in the assay with Staphylococcus aureus [1] was determined as 0.25 µg/mL (≈ 0.462 µM); with Pseudomonas aeruginosa [2] it was 4 µg/mL (≈ 7.39 µM); in the assay on Staphylococcus aureus [3], 0.25 µg/mL (≈ 0.462 µM); with Enterococcus faecalis, 0.5 µg/mL (≈ 0.923 µM); in the assay on Pseudomonas aeruginosa [4] it was 1 µg/mL (≈ 1.85 µM); in the assay with Acinetobacter baumannii, 1 µg/mL (≈ 1.85 µM). Further, the MIC with Klebsiella pneumoniae came to 0.25 µg/mL (≈ 0.462 µM); in the assay on Escherichia coli [5] it was 64 µg/mL (≈ 118 µM); in the assay with Escherichia coli [6], 2 µg/mL (≈ 3.69 µM); with Staphylococcus aureus [7], 0.25 µg/mL (≈ 0.462 µM); with Staphylococcus aureus [8] it was 0.25 µg/mL (≈ 0.462 µM).

As for `CCn1cc(C(=O)O)c(=O)c2cc(F)c(N3CCN(C(=O)/C(C#N)=C/c4cn(CC5CCCC5)c5ccccc45)CC3)cc21`, the MIC in the assay on Staphylococcus aureus [1] worked out at 2 µg/mL (≈ 3.36 µM); in the assay with Pseudomonas aeruginosa [2], 0.5 µg/mL (≈ 0.839 µM); in the assay on Staphylococcus aureus [3], 16 µg/mL (≈ 26.9 µM); in the assay with Enterococcus faecalis, 8 µg/mL (≈ 13.4 µM); in the assay on Pseudomonas aeruginosa [4] it was 1 µg/mL (≈ 1.68 µM); in the assay with Acinetobacter baumannii, 16 µg/mL (≈ 26.9 µM). Also, the minimum inhibitory concentration (MIC) in the assay on Klebsiella pneumoniae is 0.5 µg/mL (≈ 0.839 µM); in the assay on Escherichia coli [5] it was 4 µg/mL (≈ 6.72 µM); in the assay with Escherichia coli [6] it was 1 µg/mL (≈ 1.68 µM); with Staphylococcus aureus [7] it was 1 µg/mL (≈ 1.68 µM); in the assay on Staphylococcus aureus [8] it was 32 µg/mL (≈ 53.7 µM).

With `CCn1cc(C(=O)O)c(=O)c2cc(F)c(N3CCN(C(=O)/C(C#N)=C/c4cn(CCCN5CCOCC5)c5ccccc45)CC3)cc21`, the MIC in the assay on Staphylococcus aureus [1] amounted to 0.25 µg/mL (≈ 0.39 µM); with Pseudomonas aeruginosa [2], 0.25 µg/mL (≈ 0.39 µM); in the assay on Staphylococcus aureus [3] it was 2 µg/mL (≈ 3.12 µM); in the assay with Enterococcus faecalis, 1 µg/mL (≈ 1.56 µM); in the assay with Pseudomonas aeruginosa [4], 1 µg/mL (≈ 1.56 µM); in the assay with Acinetobacter baumannii it was 0.5 µg/mL (≈ 0.78 µM). In addition, the MIC with Klebsiella pneumoniae was determined as 0.25 µg/mL (≈ 0.39 µM); in the assay on Escherichia coli [5], 1 µg/mL (≈ 1.56 µM); in the assay with Escherichia coli [6], 1 µg/mL (≈ 1.56 µM); with Staphylococcus aureus [7], 0.25 µg/mL (≈ 0.39 µM); in the assay on Staphylococcus aureus [8], 0.25 µg/mL (≈ 0.39 µM).

Take `CCCCCCCCn1cc(C(=O)O)c(=O)c2cc(F)c(N3CCN(C(=O)/C(C#N)=C/c4cn(CC(=O)OCC)c5ccccc45)CC3)cc21`: the minimal inhibitory concentration (MIC) in the assay on Staphylococcus aureus [1] worked out at 256 µg/mL (≈ 374 µM); in the assay on Pseudomonas aeruginosa [2], 16 µg/mL (≈ 23.4 µM); in the assay with Staphylococcus aureus [3], 32 µg/mL (≈ 46.8 µM); with Enterococcus faecalis it was 1 µg/mL (≈ 1.46 µM); in the assay with Pseudomonas aeruginosa [4], 16 µg/mL (≈ 23.4 µM); in the assay with Acinetobacter baumannii, 2 µg/mL (≈ 2.92 µM). In addition, the MIC in the assay with Klebsiella pneumoniae turned out to be 4 µg/mL (≈ 5.85 µM); with Escherichia coli [5], 0.25 µg/mL (≈ 0.366 µM); with Escherichia coli [6], 0.5 µg/mL (≈ 0.731 µM); in the assay with Staphylococcus aureus [7] it was 4 µg/mL (≈ 5.85 µM); in the assay on Staphylococcus aureus [8], 8 µg/mL (≈ 11.7 µM).

With `CCn1cc(C(=O)O)c(=O)c2cc(F)c(N3CCN(C(=O)/C(C#N)=C/c4c[nH]c5cc(C)ccc45)CC3)cc21`, the MIC came to 1 µg/mL (≈ 1.9 µM) in the assay with Staphylococcus aureus [1]; 0.25 µg/mL (≈ 0.474 µM) with Pseudomonas aeruginosa [2]; 0.25 µg/mL (≈ 0.474 µM) in the assay on Staphylococcus aureus [3]; 2 µg/mL (≈ 3.79 µM) in the assay on Enterococcus faecalis; 2 µg/mL (≈ 3.79 µM) in the assay on Pseudomonas aeruginosa [4]; 0.25 µg/mL (≈ 0.474 µM) in the assay on Acinetobacter baumannii. Also, the MIC worked out at 0.25 µg/mL (≈ 0.474 µM) in the assay on Klebsiella pneumoniae; 1 µg/mL (≈ 1.9 µM) with Escherichia coli [5]; 0.5 µg/mL (≈ 0.948 µM) with Escherichia coli [6]; 0.25 µg/mL (≈ 0.474 µM) in the assay on Staphylococcus aureus [7]; 0.25 µg/mL (≈ 0.474 µM) in the assay on Staphylococcus aureus [8].

In the case of `C#CCn1cc(/C=C(\C#N)C(=O)N2CCN(c3cc4c(cc3F)c(=O)c(C(=O)O)cn4CC)CC2)c2ccccc21`, the MIC in the assay with Staphylococcus aureus [1] amounted to 0.5 µg/mL (≈ 0.906 µM); in the assay with Pseudomonas aeruginosa [2], 0.5 µg/mL (≈ 0.906 µM); in the assay with Staphylococcus aureus [3], 0.25 µg/mL (≈ 0.453 µM); in the assay with Enterococcus faecalis it was 0.5 µg/mL (≈ 0.906 µM); in the assay on Pseudomonas aeruginosa [4] it was 4 µg/mL (≈ 7.25 µM); with Acinetobacter baumannii, 0.25 µg/mL (≈ 0.453 µM). The MIC in the assay on Klebsiella pneumoniae was 0.25 µg/mL (≈ 0.453 µM); in the assay on Escherichia coli [5], 1 µg/mL (≈ 1.81 µM); in the assay on Escherichia coli [6] it was 0.5 µg/mL (≈ 0.906 µM); in the assay with Staphylococcus aureus [7], 0.25 µg/mL (≈ 0.453 µM); in the assay with Staphylococcus aureus [8], 0.25 µg/mL (≈ 0.453 µM).
